In general, Ki refers to a dissociation constant, usually derived from enzyme kinetics or from competition with a known ligand.

The text below walks through data of BindingDB's records for PubMed 2156866 (Nagoya University School of Medicine, 1990).

What all share (experiment): Enzyme Assay
What all share (conditions): 30 °C

Assay [1] deals with Protein kinase C alpha type (Homo sapiens, UniProt P17252). The source says: (§1) Protein kinase C, cAMP dependent protein kinase, cGMP dependent protein kinase and myosin light chain kinase activity were measure under conditions described by Hidaka. Casein kinases I and II activities were meas8ured as described by Chijiwa. Ca/ calmodulin kinase II activity was measure d by the method described by McGuinness.

Assay [2] concerns the target Casein kinase I isoform alpha (Homo sapiens, UniProt P48729).
Description: as §1

Assay [3] deals with T1, cGMP-dependent protein kinase 1 (Homo sapiens, UniProt Q13976).
T1 sequence (Q13976 whole entry): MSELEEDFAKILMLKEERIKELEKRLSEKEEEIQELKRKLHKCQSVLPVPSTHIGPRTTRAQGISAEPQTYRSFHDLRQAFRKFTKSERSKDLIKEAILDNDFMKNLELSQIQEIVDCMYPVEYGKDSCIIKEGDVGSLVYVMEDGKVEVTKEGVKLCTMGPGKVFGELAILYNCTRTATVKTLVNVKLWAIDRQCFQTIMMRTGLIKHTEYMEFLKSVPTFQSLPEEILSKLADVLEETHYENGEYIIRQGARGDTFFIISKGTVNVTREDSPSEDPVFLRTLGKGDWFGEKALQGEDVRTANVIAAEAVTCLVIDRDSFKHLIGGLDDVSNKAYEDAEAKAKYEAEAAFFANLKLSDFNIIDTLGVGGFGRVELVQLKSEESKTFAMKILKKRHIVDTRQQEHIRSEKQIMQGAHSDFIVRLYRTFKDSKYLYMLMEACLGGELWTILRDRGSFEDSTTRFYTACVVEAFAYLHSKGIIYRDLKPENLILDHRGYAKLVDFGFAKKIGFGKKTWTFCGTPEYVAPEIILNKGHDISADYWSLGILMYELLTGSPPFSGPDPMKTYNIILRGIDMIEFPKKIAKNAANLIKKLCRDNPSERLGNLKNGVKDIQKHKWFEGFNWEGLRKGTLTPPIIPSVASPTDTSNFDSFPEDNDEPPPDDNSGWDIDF
Description: as §1

For assay [4], the target named is cAMP-dependent protein kinase catalytic subunit alpha (Homo sapiens, UniProt P17612).
Description: as §1

In assay [5] the target is Casein kinase II subunit alpha (Homo sapiens, UniProt P68400).
Sequence of Casein kinase II subunit alpha (P68400 whole entry): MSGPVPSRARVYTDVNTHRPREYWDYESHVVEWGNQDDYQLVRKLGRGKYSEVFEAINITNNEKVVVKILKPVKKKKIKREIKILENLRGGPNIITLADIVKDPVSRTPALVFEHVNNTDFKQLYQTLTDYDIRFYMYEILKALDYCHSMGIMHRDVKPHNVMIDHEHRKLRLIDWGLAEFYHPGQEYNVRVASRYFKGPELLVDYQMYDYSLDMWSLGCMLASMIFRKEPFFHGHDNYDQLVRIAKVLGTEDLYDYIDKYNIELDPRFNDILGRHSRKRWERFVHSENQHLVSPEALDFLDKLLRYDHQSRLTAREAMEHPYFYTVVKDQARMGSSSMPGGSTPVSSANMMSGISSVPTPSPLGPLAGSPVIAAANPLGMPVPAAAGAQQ
Description: as §1

Assay [6] concerns the target Calcium/calmodulin-dependent protein kinase type II subunit beta (Homo sapiens, UniProt Q13554).
Description: as §1

Sequence of Calcium/calmodulin-dependent protein kinase type II subunit beta (Q13554 whole entry): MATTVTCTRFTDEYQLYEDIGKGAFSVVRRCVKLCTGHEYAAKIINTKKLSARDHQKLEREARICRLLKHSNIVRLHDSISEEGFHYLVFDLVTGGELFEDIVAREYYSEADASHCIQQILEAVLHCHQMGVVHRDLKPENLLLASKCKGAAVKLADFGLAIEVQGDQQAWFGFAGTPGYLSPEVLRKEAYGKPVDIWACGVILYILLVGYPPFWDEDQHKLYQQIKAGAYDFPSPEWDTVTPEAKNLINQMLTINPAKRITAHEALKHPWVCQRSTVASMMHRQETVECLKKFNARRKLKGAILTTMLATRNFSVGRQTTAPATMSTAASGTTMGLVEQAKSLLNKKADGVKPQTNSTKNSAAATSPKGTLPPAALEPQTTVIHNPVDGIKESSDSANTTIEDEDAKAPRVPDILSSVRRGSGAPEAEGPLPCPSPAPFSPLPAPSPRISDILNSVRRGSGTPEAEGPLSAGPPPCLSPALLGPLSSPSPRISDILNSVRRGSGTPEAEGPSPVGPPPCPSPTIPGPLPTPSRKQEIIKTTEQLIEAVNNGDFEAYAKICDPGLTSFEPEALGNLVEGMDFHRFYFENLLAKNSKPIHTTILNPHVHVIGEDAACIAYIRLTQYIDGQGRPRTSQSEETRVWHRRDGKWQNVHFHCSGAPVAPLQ
Sequence of Casein kinase I isoform alpha (P48729 whole entry, canonical isoform): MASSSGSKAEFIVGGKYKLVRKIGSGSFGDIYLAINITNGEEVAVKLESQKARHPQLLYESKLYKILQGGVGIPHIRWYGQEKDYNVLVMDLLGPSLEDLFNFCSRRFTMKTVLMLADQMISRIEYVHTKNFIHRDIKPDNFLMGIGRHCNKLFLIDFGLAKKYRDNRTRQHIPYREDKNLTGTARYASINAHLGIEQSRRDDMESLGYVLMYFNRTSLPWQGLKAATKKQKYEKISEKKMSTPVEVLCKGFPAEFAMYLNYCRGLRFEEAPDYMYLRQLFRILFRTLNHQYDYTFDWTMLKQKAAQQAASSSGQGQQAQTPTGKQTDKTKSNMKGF

As to `O=S(=O)(NCCNC/C=C/c1ccccc1)c1cccc2cnccc12` [H-88], the Ki stood at 75.7 µM in assay [1]; 60.7 µM in assay [2]; 0.76 µM in assay [3]; 0.36 µM in assay [4]; 104 µM in assay [5]; 71.3 µM in assay [6].
As to `O=S(=O)(NCCNC/C=C/c1ccc(Br)cc1)c1cccc2cnccc12`, the Ki in assay [3] was 0.48 µM; in assay [6] it was 29.7 µM.
